Experimental data: patent US8101608B2, “Compounds and compositions as protein kinase inhibitors” (IRM LLC, a Delware Limited Corporation, priority 2004, dated 2012)
pIC50: −log10 of the molar value.

How the values were obtained:
trkC = biological target: T1, trkC (Homo sapiens, UniProt Q16288); experiment: Inhibition of cellular ETV6-NTRK3 dependent proliferation (Ba/F3 EN cells); format: cell-based, murine; settings: MTT, read-out: IC50 for TrkC
T1 construct: fused on or other part: P41212 (Transcription factor ETV6)
Method: The murine cell line used is the Ba/F3 hematopoietic progenitor cell line transformed with ETV6-NTRK3 cDNA (Ba/13 EN). These cells are maintained in RPMI/10% fetal calf serum (RPMI/FCS) supplemented with penicillin 50 μg/mL, streptomycin 50 μg/mL and L-glutamine […]. Untransformed Ba/F3 cells are similarly maintained with the addition of 10% of WEHI conditioned medium as a source of IL3.

Aurora-A = biological target: T2, Aurora-A (Homo sapiens, UniProt O14965); experiment: Kinase inhibition, Upstate KinaseProfiler radio-enzymatic filter binding assay; format: biochemical
T2 construct: purchased Upstate (KinaseProfiler panel)
T2 sequence (O14965 1-403): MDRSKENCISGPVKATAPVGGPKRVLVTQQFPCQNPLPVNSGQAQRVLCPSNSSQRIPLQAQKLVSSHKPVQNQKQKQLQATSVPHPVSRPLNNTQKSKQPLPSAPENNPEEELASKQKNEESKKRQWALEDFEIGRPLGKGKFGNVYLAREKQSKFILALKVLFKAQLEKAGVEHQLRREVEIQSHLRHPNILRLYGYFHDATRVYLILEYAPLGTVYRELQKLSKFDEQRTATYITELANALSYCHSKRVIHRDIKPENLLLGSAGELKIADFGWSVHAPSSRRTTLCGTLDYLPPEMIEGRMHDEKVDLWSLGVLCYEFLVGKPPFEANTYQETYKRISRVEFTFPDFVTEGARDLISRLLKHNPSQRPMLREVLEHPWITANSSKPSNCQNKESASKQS
Method: (§1) Percentage inhibition is calculated for each reaction.

c-RAF = biological target: T3, c-RAF (Homo sapiens, UniProt P04049); experiment: as above; format: biochemical
T3 construct: "active kinase (0.001-0.01 Units); fused on or other part: Probably an N-terminal GST tag (vendor's product)
Method: as §1

T3 sequence (P04049 whole entry Y340D/Y341D, form open, the tested form may be a part): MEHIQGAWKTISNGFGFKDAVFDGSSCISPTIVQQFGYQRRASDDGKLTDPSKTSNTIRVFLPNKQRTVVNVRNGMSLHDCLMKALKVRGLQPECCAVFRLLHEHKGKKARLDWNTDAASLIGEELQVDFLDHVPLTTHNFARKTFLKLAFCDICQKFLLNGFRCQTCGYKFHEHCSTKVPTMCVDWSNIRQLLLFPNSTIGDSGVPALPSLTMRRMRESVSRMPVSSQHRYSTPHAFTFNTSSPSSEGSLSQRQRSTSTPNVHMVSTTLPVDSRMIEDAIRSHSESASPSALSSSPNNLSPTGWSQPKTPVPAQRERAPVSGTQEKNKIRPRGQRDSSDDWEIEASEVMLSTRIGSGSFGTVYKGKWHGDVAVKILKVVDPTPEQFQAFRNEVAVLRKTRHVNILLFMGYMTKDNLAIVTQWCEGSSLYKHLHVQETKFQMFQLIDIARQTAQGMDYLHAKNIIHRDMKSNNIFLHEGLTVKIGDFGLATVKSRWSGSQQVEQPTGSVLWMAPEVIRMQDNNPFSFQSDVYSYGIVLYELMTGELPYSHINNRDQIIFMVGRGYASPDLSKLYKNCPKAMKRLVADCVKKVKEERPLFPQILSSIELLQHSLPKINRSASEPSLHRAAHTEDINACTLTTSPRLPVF
T1 sequence (Q16288 whole entry, change not shown, the tested form may be a part): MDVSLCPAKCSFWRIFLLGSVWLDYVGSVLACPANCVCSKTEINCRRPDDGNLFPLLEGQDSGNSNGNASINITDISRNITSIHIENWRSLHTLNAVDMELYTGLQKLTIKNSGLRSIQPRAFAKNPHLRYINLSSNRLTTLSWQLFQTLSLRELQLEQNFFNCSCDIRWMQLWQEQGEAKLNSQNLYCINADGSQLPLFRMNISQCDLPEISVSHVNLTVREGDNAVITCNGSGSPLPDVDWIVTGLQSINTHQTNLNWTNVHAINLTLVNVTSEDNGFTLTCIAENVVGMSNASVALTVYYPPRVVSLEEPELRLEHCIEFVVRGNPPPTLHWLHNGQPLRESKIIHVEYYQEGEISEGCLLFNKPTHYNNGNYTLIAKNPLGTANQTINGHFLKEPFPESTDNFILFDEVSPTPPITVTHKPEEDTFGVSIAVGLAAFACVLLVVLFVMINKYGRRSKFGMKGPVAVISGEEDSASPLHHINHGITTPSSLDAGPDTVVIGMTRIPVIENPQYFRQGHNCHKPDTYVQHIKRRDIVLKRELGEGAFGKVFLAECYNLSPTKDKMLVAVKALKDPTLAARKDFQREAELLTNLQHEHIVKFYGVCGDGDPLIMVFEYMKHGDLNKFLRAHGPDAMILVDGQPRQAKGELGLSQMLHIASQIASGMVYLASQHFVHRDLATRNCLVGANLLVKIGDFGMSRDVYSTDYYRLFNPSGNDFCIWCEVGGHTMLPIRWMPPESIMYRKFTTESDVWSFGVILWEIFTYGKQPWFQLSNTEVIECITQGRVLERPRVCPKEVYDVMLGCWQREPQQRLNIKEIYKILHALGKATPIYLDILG

- GI50 (trkC): 16.7 nM
- pIC50 (Aurora-A): 7.82
- pIC50 (c-RAF): 6.94
Structure (SMILES): Cc1cn(-c2cc(C(=O)Nc3cccc(Nc4ccc5c(c4)NC(=O)/C5=C/c4ccc[nH]4)c3)cc(C(F)(F)F)c2)cn1 [Example 1]
